For 23 compounds, T/C results are on record in PubChem BioAssay AID330 (DTP/NCI, 2004).

The subject of the assay is P388 leukemia ip, CD2F1 mice, survival T/C. The assay is described as follows: NCI In Vivo Anticancer Drug Screen. Data for tumor model P388 Leukemia (intraperitoneal) in CD2F1 (CDF1) mice. Particulars: endpoint: median survival time, higher = longer survival. The method, boiled down: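 Mice carrying the transplanted tumor received test compound or vehicle. Survival was recorded in each group, and the value is the treated-group measurement divided by that of the vehicle-treated control group.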

Setting [1] is: dose: 25.0 mg/kg/injection, schedule: Q01DX009 (ip), vehicle: distilled water + Tween-80.
Where [2] appears, read: dose: 25.0 mg/kg/injection, schedule: Q01DX009 (ip), vehicle: saline.
Setting [3] is: dose: 50.0 mg/kg/injection, schedule: Q01DX009 (ip), vehicle: saline with Tween-80.
[4] abbreviates: dose: 100.0 mg/kg/injection, schedule: Q01DX009 (ip), vehicle: saline with Tween-80.
[5] abbreviates: dose: 0.78 mg/kg/injection, schedule: Q01DX009 (ip), vehicle: water.
The mark [6] stands for this setting: dose: 1.56 mg/kg/injection, schedule: Q01DX009 (ip), vehicle: water.
The mark [7] stands for this setting: dose: 12.5 mg/kg/injection, schedule: Q01DX009 (ip), vehicle: water.
The mark [8] stands for this setting: dose: 25.0 mg/kg/injection, schedule: Q01DX009 (ip), vehicle: water.
[9] abbreviates: dose: 200.0 mg/kg/injection, schedule: Q01DX009 (ip), vehicle: saline with Tween-80.
[10] abbreviates: dose: 50.0 mg/kg/injection, schedule: Q01DX009 (ip), vehicle: saline.
Setting [11] is: dose: 100.0 mg/kg/injection, schedule: Q01DX009 (ip), vehicle: saline.
The mark [12] stands for this setting: dose: 60.0 mg/kg/injection, schedule: Q01DX005 (ip), vehicle: saline with Tween-80.
The mark [13] stands for this setting: dose: 120.0 mg/kg/injection, schedule: Q01DX005 (ip), vehicle: saline with Tween-80.
The mark [14] stands for this setting: dose: 240.0 mg/kg/injection, schedule: Q01DX005 (ip), vehicle: saline with Tween-80.

The structures appear in SMILES notation. “And” between values parts separate entries of the source, which are not always exact repeats. Identical values can stand only once. Inconclusive results and toxic doses are left out.

In the case of `S=C(N/N=C/c1ccccn1)N/N=C/c1ccccn1`, the T/C was 117 % of control (dose: 6.25 mg/kg/injection, schedule: Q01DX009 (ip), vehicle: saline); 103 % of control and 105 % of control (dose: 12.5 mg/kg/injection, schedule: Q01DX009 (ip), vehicle: saline); 97 % of control under setting [1]; 109 % of control and 120 % of control under setting [2].

On to `Nc1nnc(Cc2ccccc2[N+](=O)[O-])c(=O)[nH]1`, for which the T/C was 113 % of control (dose: 50.0 mg/kg/injection, schedule: Q01DX009 (ip), vehicle: Klucel (hydroxypropylcellulose) (HPC)); 115 % of control (dose: 100.0 mg/kg/injection, schedule: Q01DX009 (ip), vehicle: Klucel (hydroxypropylcellulose) (HPC)); 105 % of control (dose: 200.0 mg/kg/injection, schedule: Q01DX009 (ip), vehicle: Klucel (hydroxypropylcellulose) (HPC)).

Consider `CCCCCCCCCCCCCCCCCC(=O)Nc1ccn(C2OC(CO)C(O)C2O)c(=O)n1` (configuration not stated), for which the T/C is, setting by setting: (dose: 6.25 mg/kg/injection, schedule: Q01DX009 (ip), vehicle: saline with Tween-80) 196 % of control; (dose: 12.5 mg/kg/injection, schedule: Q01DX009 (ip), vehicle: saline with Tween-80) 177 % of control and 227 % of control (2×); (dose: 25.0 mg/kg/injection, schedule: Q01DX009 (ip), vehicle: saline with Tween-80) 113 % of control and 267 % of control and 270 % of control; under setting [3], 195 % of control and 267 % of control and 270 % of control; under setting [4], 86 % of control and 92 % of control.

On to `Cc1nnc2n1-c1ccc(Cl)cc1C(c1ccccc1)=[N+]([O-])C2`, for which the T/C runs as follows: under setting [3], 103 % of control; under setting [4], 104 % of control.

As to `O=C1C2CC=CCC2C(=O)N1CC[P+](c1ccccc1)(c1ccccc1)c1ccccc1` (configuration not stated), the T/C is 100 % of control under setting [5]; 102 % of control and 95 % of control under setting [6]; 102 % of control and 106 % of control (dose: 3.13 mg/kg/injection, schedule: Q01DX009 (ip), vehicle: water); 112 % of control (dose: 6.25 mg/kg/injection, schedule: Q01DX009 (ip), vehicle: water); 115 % of control and 116 % of control under setting [7]; 115 % of control under setting [8].

`CCCCOc1cc([N+](=O)[O-])ccc1CO`: the T/C runs as follows: (dose: 100.0 mg/kg/injection, schedule: Q04DX003 (ip), vehicle: saline with Tween-80) 100 % of control; (dose: 200.0 mg/kg/injection, schedule: Q04DX003 (ip), vehicle: saline with Tween-80) 100 % of control; (dose: 400.0 mg/kg/injection, schedule: Q04DX003 (ip), vehicle: saline with Tween-80) 95 % of control.

On to `CC12C=C3C4(CCCC3(O1)c1ccccc12)OCCO4` (configuration not stated), for which the T/C under setting [3] is 96 % of control, the T/C under setting [4] is 102 % of control and the T/C under setting [9] was 99 % of control.

For `COc1cccc2c1C(=O)c1c(O)c3c(c(O)c1C2=O)CC(O)(/C(C)=N/NS(=O)(=O)c1ccc(C)cc1)CC3OC1CC(N)C(O)C(C)O1` (configuration not stated), the T/C runs as follows: under setting [5], 118 % of control; under setting [6], 113 % of control; under setting [7], 153 % of control; under setting [8], 179 % of control.

Take `CC(=O)CC(=O)N(C)C`: the T/C reads like this: under setting [10], 100 % of control; under setting [11], 98 % of control; (dose: 200.0 mg/kg/injection, schedule: Q01DX009 (ip), vehicle: saline) 99 % of control; (dose: 400.0 mg/kg/injection, schedule: Q01DX009 (ip), vehicle: saline) 99 % of control.

With `C[As](C)SCC1OC(n2cnc3c(N)ncnc32)C2OC(C)(C)OC12` (configuration not stated), the T/C reads like this: (dose: 12.5 mg/kg/injection, schedule: Q01DX009 (ip), vehicle: distilled water + Tween-80) 101 % of control; under setting [1], 100 % of control; (dose: 50.0 mg/kg/injection, schedule: Q01DX009 (ip), vehicle: distilled water + Tween-80) 110 % of control; (dose: 100.0 mg/kg/injection, schedule: Q01DX009 (ip), vehicle: distilled water + Tween-80) 110 % of control; (dose: 200.0 mg/kg/injection, schedule: Q01DX009 (ip), vehicle: distilled water + Tween-80) 101 % of control.

In the case of `COC(=O)[C@@H]1CC/C(=C(\C#N)C(=O)OC(C)(C)C)N1`, the T/C is 95 % of control under setting [12], 96 % of control under setting [13] and 91 % of control under setting [14].

For `COP(=O)(O)OC`, the T/C was 88 % of control (dose: 200.0 mg/kg/injection, schedule: Q01DX001 (ip), vehicle: Klucel (hydroxypropylcellulose) (HPC)) and 100 % of control (dose: 400.0 mg/kg/injection, schedule: Q01DX001 (ip), vehicle: Klucel (hydroxypropylcellulose) (HPC)).

`O=C(Nc1cc(Cl)ccc1Cl)O/N=C/c1ccncc1`: the T/C is 93 % of control under setting [3], 94 % of control under setting [4] and 94 % of control under setting [9].

Regarding `O=C(NCc1cccnc1)Nc1cccc2c(NC(=O)NCc3cccnc3)cccc12`, the T/C is, setting by setting: under setting [12], 91 % of control; under setting [13], 86 % of control; under setting [14], 86 % of control.

`O=C(Nc1ccccc1)Sc1nnc2c3ccccc3c3ccccc3c2n1`: the T/C was 100 % of control under setting [3], 101 % of control under setting [4] and 99 % of control under setting [9].

In the case of `COc1ccc2c(C)c(N=C=S)c(=O)oc2c1`, the T/C is 100 % of control (dose: 50.0 mg/kg/injection, schedule: Q04DX003 (ip), vehicle: suspension in saline); 100 % of control (dose: 100.0 mg/kg/injection, schedule: Q04DX003 (ip), vehicle: suspension in saline); 106 % of control (dose: 200.0 mg/kg/injection, schedule: Q04DX003 (ip), vehicle: suspension in saline).

For `Cc1ccc2[nH]c(=O)oc2c1`, the T/C (dose: 25.0 mg/kg/injection, schedule: Q04DX002 (ip), vehicle: saline with Tween-80) is 90 % of control and the T/C (dose: 50.0 mg/kg/injection, schedule: Q04DX002 (ip), vehicle: saline with Tween-80) was 101 % of control.

Turning to `COc1cc(OC)c2ccc(=O)oc2c1/C=C\C1(C)CCC(C)=CC1c1c(OC)cc(OC)c2ccc(=O)oc12` (configuration not stated), the T/C was 96 % of control (dose: 2.5 mg/kg/injection, schedule: Q01DX005 (ip), vehicle: Klucel (hydroxypropylcellulose) (HPC)); 105 % of control (dose: 5.0 mg/kg/injection, schedule: Q01DX005 (ip), vehicle: Klucel (hydroxypropylcellulose) (HPC)); 117 % of control (dose: 10.0 mg/kg/injection, schedule: Q01DX005 (ip), vehicle: Klucel (hydroxypropylcellulose) (HPC)); 96 % of control (dose: 20.0 mg/kg/injection, schedule: Q01DX005 (ip), vehicle: Klucel (hydroxypropylcellulose) (HPC)); 86 % of control (dose: 40.0 mg/kg/injection, schedule: Q01DX005 (ip), vehicle: Klucel (hydroxypropylcellulose) (HPC)).

As for `COc1ccc(C2OC(=O)C(=O)C2=O)cc1OC` (configuration not stated), the T/C is, setting by setting: (dose: 60.0 mg/kg/injection, schedule: Q01DX005 (ip), vehicle: Klucel (hydroxypropylcellulose) (HPC)) 100 % of control; (dose: 120.0 mg/kg/injection, schedule: Q01DX005 (ip), vehicle: Klucel (hydroxypropylcellulose) (HPC)) 107 % of control; (dose: 240.0 mg/kg/injection, schedule: Q01DX005 (ip), vehicle: Klucel (hydroxypropylcellulose) (HPC)) 105 % of control.

For the compound `CC1CCN(CC(O)C(C)(C)Oc2ccc(-c3ccccc3)cc2)CC1` (configuration not stated), the T/C reads like this: (dose: 50.0 mg/kg/injection, schedule: Q01DX005 (ip), vehicle: Klucel (hydroxypropylcellulose) (HPC)) 97 % of control; (dose: 100.0 mg/kg/injection, schedule: Q01DX005 (ip), vehicle: Klucel (hydroxypropylcellulose) (HPC)) 93 % of control.

With `CC1=C(C(=O)N=C(N)C(Cl)(Cl)Cl)SCCO1`, the T/C runs as follows: (dose: 50.0 mg/kg/injection, schedule: Q01DX005 (ip), vehicle: distilled water + alcohol) 108 % of control; (dose: 100.0 mg/kg/injection, schedule: Q01DX005 (ip), vehicle: distilled water + alcohol) 109 % of control; (dose: 200.0 mg/kg/injection, schedule: Q01DX005 (ip), vehicle: distilled water + alcohol) 117 % of control.

As for `CCCCCCCCCCCCOC(=O)c1ccc(Cl)cc1`, the T/C was 87 % of control under setting [3], 102 % of control under setting [4] and 104 % of control under setting [9].

Turning to `CN1CCC(c2ccccc2)(c2ccccc2)OC1`, the T/C is 100 % of control under setting [2], 100 % of control under setting [10] and 113 % of control under setting [11].
